# Measurements as given in patent publication US5665738A, “Imidazole derivatives and processes for the preparation thereof” (Korea Research Institute of Chemical Technology, priority 1994, dated 1997).
# Test system: angiotensin II receptor
# Assay: Angiotensin II receptor binding assay ([3H] angiotensin II displacement)
# Details: 60 minutes at 25° C., pH 7.2, test concentration not given
# Method: The inventive compounds were tested to measure their angiotensin II receptor binding capacity as follows.
# 1. Angiotensin II receptor binding assay
# In accordance with the procedure disclosed in Chiu, A. T. et al., Eur. J. Pharm., 157, 13 ([…])t a ligand marked with a radioistope was reacted with an angiotensin II receptor and the reactant was filtered with a glass fiber to remove unreacted ligand. After washing the filter, the amount of the remaining isotope was measured to determine the binding activity of the ligand, as described below in detail.
# (i) Isolation of angiotensin II receptor
# Sprague-Dawley rats and Wistar rats of 250 to 350 g (from The Korea Research Institute of Chemical Technology) were tested and the test procedures were carried out at 4° C., unless otherwise specified. Adrenal gland was separated from the Sprague-Dawley rats (liver, in the case of Wistar rats) into cortex and medulla. The separated adrenal cortex and medulla were washed with a sucrose buffer solution (0.2M sucrose, 1 mM EDTA, 10 mM Tris, pH 7.2) and homogenized in the same buffer solution by using a Teflon pestle and a Brinkmann homogenizer. The homogenates were centrifuged at 3,000× g for 10 minutes to remove precipitates and further centrifuged at 12,000× g for 13 minutes. The final supernatants were centrifuged at 102,000× g for 1 hour to obtain precipitates, which were washed with a Tris buffer solution (50 mM Tris, 5 mM MgCl2, pH 7.2) and re-centrifuged at 102,000× g for 1 hour. The resulting precipitates were immediately processed at the following step or stored at -70° C.
# The precipitates were suspended in a Tris buffer solution. The amount of protein was determined by using a Bio-Rad DC protein analyzing kit and the protein concentration was adjusted to the amounts of: 0.2 to 0.3 mg/ml (Sprague-Dawley rat: adrenal cortex), 1.5 to 2.0 mg/ml (Sprague-Dawley rat: adrenal medulla), and 1.5 to 2.0 mg/ml (Wistar rat: liver). To the suspension, bovine serum albumin (BSA) was added to a concentration of 0.25 wt % and the resultant was immediately processed at the following step or stored at -70° C.
# (ii) Measurement of angiotensin II receptor binding capacity
# 50 μl (based on ligand) of [^3 H] angiotensin II (NEN, NET-446) and 10 μl of each of the test compounds with various concentrations were added to the buffer solution (50 mM Tris (pH 7.2), 5 mM MgCl2, 0.25% BSA) to adjust the final volume to be 0.5 ml. Losartan (Dup 753), which is disclosed in EP No. 400,974 issued to Merck, was used as the control compound. 100 μl of the receptor suspension was added thereto and the resulting solution was reacted for 60 minutes while stirring in a water bath at 25° C. 3 ml of cold buffer solution for analysis was added to cease the reaction. The isotope which was bound to the receptor was isolated from the resultant by using Brandel Cell Harvester System with Whatman glass fiber GF/C. After washing the filter, the radioactivity of the filter was determined by using a liquid scintillation counter. Binding inhibition (%) of the test compound was calculated as follows:
# Binding Inhibition (%)=[{(T-B)-(S-B)}/(T-B)]×100
# wherein T is the radioactivity (cpm) of the reaction product untreated with the test compound, S is the radioactivity (cpm) of the reaction product treated with the test compound, and B is the radioactivity (cpm) of blank test.
row,Compound,Binding Inhibition (%)
1,"CCCCc1nc(Cl)c(C(=O)c2cccc(C=O)[n+]2[O-])n1Cc1ccc(-c2ccccc2-c2nn[nH]n2)cc1 [Compound 2, {2-butyl-5-chloro-3-[(2'-(1H-tetrazol-5-yl)biphenyl-4-yl)methyl]-3H-imidazol-4-yl}(6-formyl-1-oxypyridin-2-yl)methanone]",95.0%
2,"CCCCc1nc(Cl)c(C(=O)c2cccc(CO)[n+]2[O-])n1Cc1ccc(-c2ccccc2-c2nn[nH]n2)cc1 [Compound 3, {2-butyl-5-chloro-3-[(2'-(1H-tetrazol-5-yl)biphenyl-4-yl)methyl]-3H-imidazol-4-yl}(6-hydroxymethyl-1-oxypyridin-2-yl)methanone]",96.3%
3,"CCCCc1nc(Cl)c(C(=O)c2cccc(C(OC)OC)n2)n1Cc1ccc(-c2ccccc2-c2nnn[nH]2)cc1 [Compound 6, {2-butyl-5-chloro-3-[(2'-(1H-tetrazol-5-yl)biphenyl-4-yl)methyl]-3H-imidazol-4-yl}[6-(dimethoxymethyl)pyridin-2-yl]methanone]",91.2%
4,"CCCCc1nc(Cl)c(C(O)c2cccc(C(OC)OC)n2)n1Cc1ccc(-c2ccccc2-c2nnn[nH]2)cc1 (stereo not shown) [Compound 4, {2-butyl-5-chloro-3-[(2'-(1H-tetrazol-5-yl)biphenyl-4-yl)methyl]-3H-imidazol-4-yl}[6-(dimethoxymethyl)pyridin-2-yl]methanol]",71.2%
5,"CCCCc1nc(Cl)c(C(=O)c2cccc(C=O)n2)n1Cc1ccc(-c2ccccc2-c2nnn[nH]2)cc1 [Compound 7, {2-butyl-5-chloro-3-[(2'-(1H-tetrazol-5-yl)biphenyl-4-yl)methyl]-3H-imidazol-4-yl}(6-formylpyridin-2-yl)methanone]",79.8%
6,"CCCCc1nc(Cl)c(C(=O)c2cccc(C[N+]([O-])(CC)CC)[n+]2[O-])n1Cc1ccc(-c2ccccc2-c2nn[nH]n2)cc1 [Compound 11, {2-butyl-5-chloro-3-[(2'-(1H-tetrazol-5-yl)biphenyl-4-yl)methyl]-3H-imidazol-4-yl}[6-((diethyl)(oxy)amino)methyl-1-oxypyridin-2-yl]methanone]",99.9%
7,"CCCCc1nc(Cl)c(C(=O)c2cccc(CN(CC)CC)[n+]2[O-])n1Cc1ccc(-c2ccccc2-c2nn[nH]n2)cc1 [Compound 10, {2-butyl-5-chloro-3-[(2'-(1H-tetrazol-5-yl)biphenyl-4-yl)methyl]-3H-imidazol-4-yl}[6-(diethylamino)methyl-1-oxypyridin-2-yl]methanone]",91.1%
8,"CCCCc1nc(Cl)c(C(O)c2cccc(CN(CC)CC)[n+]2[O-])n1Cc1ccc(-c2ccccc2-c2nn[nH]n2)cc1 (stereo not shown) [Compound 9, {2-butyl-5-chloro-3-[(2'-(1H-tetrazol-5-yl)biphenyl-4-yl)methyl]-3H-imidazol-4-yl}[6-(diethylamino)methyl-1-oxypyridin-2-yl]methanol]",30.5%
9,"CCCCc1nc(Cl)c(C(=O)c2cccc(C(OC)OC)[n+]2[O-])n1Cc1ccc(-c2ccccc2-c2nn[nH]n2)cc1 [Compound 1, {2-butyl-5-chloro-3-[(2'-(1H-tetrazol-5-yl)biphenyl-4-yl)methyl]-3H-imidazol-4-yl}[6-(dimethoxymethyl)-1-oxypyridin-2-yl]methanone]",91.1%
10,"CCCCc1nc(Cl)c(C(=O)c2cccc(CO)n2)n1Cc1ccc(-c2ccccc2-c2nnn[nH]2)cc1 [Compound 8, {2-butyl-5-chloro-3-[(2'-(1H-tetrazol-5-yl)biphenyl-4-yl)methyl]-3H-imidazol-4-yl}[6-(hydroxymethyl)pyridin-2-yl]methanone]",68.9%

# More lines, now with the values ahead:
row,Binding Inhibition (%),Compound
1,92.1%,"CCCCc1nc(Cl)c(C(=O)c2cccc(C[N+]([O-])(CC)CC)n2)n1Cc1ccc(-c2ccccc2-c2nn[nH]n2)cc1 [Compound 14, {2-butyl-5-chloro-3-[(2'-(1H-tetrazol-5-yl)biphenyl-4-yl)methyl]-3H-imidazol-4-yl}[6-[((diethyl)(oxy)amino)methyl]pyridin-2-yl]methanone]"
2,98.8%,"CCCCc1nc(Cl)c(C(=O)c2ccc(C[N+]([O-])(CC)CC)c[n+]2[O-])n1Cc1ccc(-c2ccccc2-c2nn[nH]n2)cc1 [Compound 32, {2-butyl-5-chloro-3-[(2'-(1H-tetrazol-5-yl)biphenyl-4-yl)methyl]-3H-imidazol-4-yl}[5-((diethyl)(oxy)amino)methyl-1-oxypyridin-2-yl]methanone]"
3,87.8%,"CCCCc1nc(Cl)c(C(O)c2ccc(C(OC)OC)cn2)n1Cc1ccc(-c2ccccc2-c2nnn[nH]2)cc1 (stereo not shown) [Compound 25, {2-butyl-5-chloro-3-[(2'-(1H-tetrazol-5-yl)biphenyl-4-yl)methyl]-3H-imidazol-4-yl}[5-(dimethoxymethyl)pyridin-2-yl]methanol]"
4,90.1%,"CCCCc1nc(Cl)c(C(=O)c2ccc(C(OC)OC)c[n+]2[O-])n1Cc1ccc(-c2ccccc2-c2nn[nH]n2)cc1 [Compound 22, {2-butyl-5-chloro-3-[(2'-(1H-tetrazol-5-yl)biphenyl-4-yl)methyl]-3H-imidazol-4-yl}[5-(dimethoxymethyl)-1-oxypyridin-2-yl]methanone]"
5,89.0%,"CCCCc1nc(Cl)c(C(=O)c2cccc(C(C)=O)[n+]2[O-])n1Cc1ccc(-c2ccccc2-c2nn[nH]n2)cc1 [Compound 20, {2-butyl-5-chloro-3-[(2'-(1H-tetrazol-5-yl)biphenyl-4-yl)methyl]-3H-imidazol-4-yl}(6-acetyl-1-oxypyridin-2-yl)methanone]"
6,97.9%,"CCCCc1nc(Cl)c(C(=O)c2ccc(C[N+]([O-])(CC)CC)cn2)n1Cc1ccc(-c2ccccc2-c2nn[nH]n2)cc1 [Compound 35, {2-butyl-5-chloro-3-[(2'-(1H-tetrazol-5-yl)biphenyl-4-yl)methyl]-3H-imidazo1-4-yl}{5-[((diethyl)(oxy)amino)methyl]pyridin-2-yl}methanone]"
7,94.0%,"CCCCc1nc(Cl)c(C(=O)c2ccc(C(OC)OC)cn2)n1Cc1ccc(-c2ccccc2-c2nnn[nH]2)cc1 [Compound 26, {2-butyl-5-chloro-3-[(2'-(1H-tetrazol-5-yl)biphenyl-4-yl)methyl]-3H-imidazol-4-yl}[5-(dimethoxymethyl)pyridin-2-yl]methanone]"
8,75.4%,"CCCCc1nc(Cl)c(C(O)c2cccc(C(=O)N(CC)CC)[n+]2[O-])n1Cc1ccc(-c2ccccc2-c2nn[nH]n2)cc1 (stereo not shown) [Compound 36, {2-butyl-5-chloro-3-[(2'-(1H-tetrazol-5-yl)biphenyl-4-yl)methyl]-3H-imidazol-4-yl}[6-(diethylamino)carbonyl-1-oxypyridin-2-yl]methanol]"
9,88.7%,"CCCCc1nc(Cl)c(C(=O)c2cccc(C(C)O)[n+]2[O-])n1Cc1ccc(-c2ccccc2-c2nn[nH]n2)cc1 (stereo not shown) [Compound 19, {2-butyl-5-chloro-3-[(2'-(1H-tetrazol-5-yl)biphenyl-4-yl)methyl]-3H-imidazol-4-yl}[6-(1-hydroxyethyl)-1-oxypyridin-2-yl]methanone]"
10,63.2%,"CCCCc1nc(Cl)c(C(O)c2cccc(CN(CC)CC)n2)n1Cc1ccc(-c2ccccc2-c2nnn[nH]2)cc1 (stereo not shown) [Compound 12, {2-butyl-5-chloro-3-[(2'-(1H-tetrazol-5-yl)biphenyl-4-yl)methyl]-3H-imidazol-4-yl}[6-((diethylamino)methyl)pyridin-2-yl]methanol]"
11,90.5%,"CCCCc1nc(Cl)c(C(=O)c2cccc(CN(CC)CC)n2)n1Cc1ccc(-c2ccccc2-c2nnn[nH]2)cc1 [Compound 13, {2-butyl-5-chloro-3-[(2'-(1H-tetrazol-5-yl)biphenyl-4-yl)methyl]-3H-imidazol-4-yl}[6-((diethylamino)methyl)pyridin-2-yl]methanone]"
12,92.8%,"CCCCc1nc(Cl)c(C(=O)c2cccc(C(=O)N(CC)CC)[n+]2[O-])n1Cc1ccc(-c2ccccc2-c2nn[nH]n2)cc1 [Compound 37, {2-butyl-5-chloro-3-[(2'-(1H-tetrazol-5-yl)biphenyl-4-yl)methyl]-3H-imidazol-4-yl}[6-(diethylamino)carbonyl-1-oxypyridin-2-yl]methanone]"
